Like-named read-outs stand apart in the source and are kept apart here.
Columns and labels:
CMV AD-169 strain = assay: Anti-CMV activity in HEL cell cultures, AD-169 strain; format: cell-based, cytomegalovirus; conditions: reduce virus plaque formation by 50%
CMV Davis strain = assay: Anti-CMV activity in HEL cell cultures, Davis strain; format: cell-based, cytomegalovirus; conditions: reduce virus plaque formation by 50%
cytomegalovirus (CMV) = assay: Anti-CMV activity in HEL cells (both strains); format: cell-based; conditions: for anti-CMV activity (in words): HEL cells
HEL cell [1] = assay: HEL cell effects: cell growth; conditions: read-out: HEL cell effects cell growth (IC50); concentration required to reduce cell growth by 50%
[2] = test system: ovarian (1A9) cancer cell line; assay: GI50 against ovarian cancer cell line 1A9; conditions: read-out: GI50 1A9
[3] = test system: p53KO HCT116 cancer cell line; assay: GI50 against p53KO HCT116 cancer cell line; conditions: read-out: GI50 p53KO
[4] = test system: colorectal (HCT116) cancer cell line; assay: GI50 against colorectal cancer cell line HCT116
[5] = test system: paclitaxel-resistant (PTX10) ovarian cancer cell line; assay: GI50 against paclitaxel-resistant ovarian cancer cell line PTX10
[6] = test system: paclitaxel-resistant (PTX22) ovarian cancer cell line; assay: GI50 against paclitaxel-resistant ovarian cancer cell line PTX22; conditions: read-out: GI50 PTX22
HEL cell [7] = assay: HEL cell effects: cell morphology (minimum cytotoxic concentration); conditions: minimum cytotoxic concentration causing microscopically detectable alteration of cell morphology
[8] = test system: vesicular stomatitis virus (VSV); format: cell-based; conditions: human cervix carcinoma HeLa cell cultures; read-out: anti-vesicular stomatitis virus (VSV) activity
[9] = test system: vesicular stomatitis virus (VSV); format: cell-based; conditions: human embryonic lung (HEL) fibroblast cell cultures
[10] = test system: murine leukemia L1210, human lymphocyte CEM, and HeLa cells; assay: Cytostatic activity against L1210, CEM and HeLa cells; format: cell-based; conditions: for cytostatic activity (in words): L1210, CEM, HeLa; for IC50: range over L1210 (48 h), CEM (72 h), HeLa (96 h)
Method: The cytostatic effects of the test compounds on murine leukemia cells (L1210), human T-lymphocyte cells (CEM) and human cervix carcinoma cells (HeLa) were evaluated as follows: an appropriate number of cells suspended in growth medium were allowed to proliferate in 200-μL-wells of 96-well-microtiter plates in the presence of variable amounts of test compounds at 37° C. in a humidified CO2-controlled atmosphere. After 48 h (L1210), 72 h (CEM) or 96 h (HeLa), the number of cells was counted in a Coulter counter. The IC50 value is defined as the concentration required to inhibit cell proliferation by 50%.

[11] = test system: HeLa and HEL cell cultures
[12] = HEL cell cultures, virus input 100 PFU
[13] = read-out: GI50 HCT116, colorectal HCT116, four days
[14] = read-out: GI50 PTX10, paclitaxel-resistant ovarian PTX10, four days
[15] = paclitaxel-resistant ovarian PTX22, four days

| Compound | EC50 (CMV AD-169 strain; [12]) | EC50 (CMV Davis strain; [12]) | IC50 (HEL cell [1]) | GI50 ([2]; ovarian 1A9, four days) | GI50 ([3]; p53KO HCT116, four days) | GI50 [4, 13] | GI50 [5, 14] | GI50 [6, 15] | HEL cell effects cell morphology (MDC) (HEL cell [7]) | EC50 (CMV Davis strain; […]) | also measured |
| --- | --- | --- | --- | --- | --- | --- | --- | --- | --- | --- | --- |
| 2-[4-(Ferrocenyl)-1,2,3-triazol-1H-yl]inosine [Compound 22] | 120 µM | 123 µM | 123 µM | 29.7 µM | > 50 µM | > 50 µM | > 50 µM | 12.9 µM | 2190 μM |  | anti-CMV activity (in words) (cytomegalovirus (CMV)): marginal activity |
| CC(=O)O[C@H]1C(=O)[C@@]2(C)[C@H]([C@H](OC(=O)c3ccccc3)[C@]3(O)C[C@H](OC(=O)[C@H](O)[C@@H](NC(=O)c4ccccc4)c4ccccc4)C(C)=C1C3(C)C)[C@]1(OC(C)=O)CO[C@@H]1C[C@@H]2O [paclitaxel, reference compound] |  |  |  |  |  |  |  |  |  |  | GI50 [2]: 0.00151 µM; GI50 ([4]; Homo sapiens, HCT-116, read-out: GI50 HCT116): 0.00685 µM; GI50 ([5]; PTX10, read-out: GI50 PTX10): 0.079 µM; GI50 [6]: 0.068 µM |
| OCc1cn(-c2nc(O)c3ncn([C@H]4C[C@H](O)[C@@H](CO)O4)c3n2)nn1 [Compound 27, 2-[4-(Hydroxymethyl)-1,2,3-triazol-1H-yl]-2′-deoxyinosine] |  |  |  | 49.4 µM | > 50 µM | > 50 µM | > 50 µM | 32.9 µM | >290 μM | > 290 µM | EC50 (CMV AD-169 strain; […]): > 290 µM |
| CCCCc1cn(-c2nc(O)c3ncn([C@@H]4O[C@H](CO)[C@@H](O)[C@H]4O)c3n2)nn1 [Compound 23, 2-(4-n-Butyl-1,2,3-triazol-1H-yl)inosine] | 73 µM | 39 µM | > 250 µM | 37 µM | > 50 µM | > 50 µM | > 50 µM | 28.1 µM |  |  | anti-CMV activity (in words) (cytomegalovirus (CMV)): somewhat more pronounced; EC50 (cytomegalovirus (CMV); range over the CMV strains, read-out: EC50 against CMV in HEL cells): 39 to 73 µM |
| O=C1c2ccccc2C(=O)N1Cc1cn(-c2nc(O)c3ncn([C@H]4C[C@H](O)[C@@H](CO)O4)c3n2)nn1 [Compound 28, 2-[4-(N-Phthalimidomethyl)-1,2,3-triazol-1H-yl]-2′-deoxyinosine] |  |  |  | 49.6 µM | > 50 µM | > 50 µM | > 50 µM | 32.2 µM | >210 μM | > 210 µM | EC50 (CMV AD-169 strain; […]): > 210 µM |
| O=C1c2ccccc2C(=O)N1Cc1cn(-c2nc(O)c3ncn([C@@H]4O[C@H](CO)[C@@H](O)[C@H]4O)c3n2)nn1 [Compound 21, 2-[4-(N-Phthalimidomethyl)-1,2,3-triazol-1H-yl]inosine] |  | > 200 µM | > 200 µM | 6.32 µM | > 50 µM | > 50 µM | > 50 µM | 14.1 µM | >200 μM |  |  |
| 2-[4-(Ferrocenyl)-1,2,3-triazol-1H-yl]-2′-deoxyinosine [Compound 29] |  |  | > 200 µM | 41.6 µM | > 50 µM | > 50 µM | > 50 µM | 18 µM | >200 μM |  |  |
| OC[C@H]1O[C@@H](n2cnc3c(O)nc(-n4cc(-c5ccccc5)nn4)nc32)[C@H](O)[C@@H]1O [Compound 17, 2-[4-(Phenyl)-1,2,3-triazol-1H-yl]inosine] | > 50 µM | > 50 µM |  | 22.8 µM | > 50 µM | > 50 µM | > 50 µM | 4.76 µM | 240 μM |  | EC50 [8]: 27 ± 2.4 µM; anti-VSV activity (in words) [9]: could not be confirmed; cytostatic activity (in words) [10]: most cytostatic; IC50 [10]: 34 to 124 µM; toxicity observed [11]: 100 to 240 µM |
| CCCCc1cn(-c2nc(O)c3ncn([C@H]4C[C@H](O)[C@@H](CO)O4)c3n2)nn1 [Compound 30, 2-(4-n-Butyl-1,2,3-triazol-1H-yl)-2′-deoxyinosine] |  |  |  | 46.1 µM | > 50 µM | > 50 µM | > 50 µM | 26.9 µM | >270 μM | > 270 µM | EC50 (CMV AD-169 strain; […]): > 270 µM |
| OC[C@H]1O[C@@H](n2cnc3c(O)nc(-n4cc(-c5ccc(F)cc5)nn4)nc32)[C@H](O)[C@@H]1O [Compound 24, 2-[4-(4-Fluorophenyl)-1,2,3-triazol-1H-yl]inosine] | > 230 µM | > 230 µM |  | 34 µM | > 50 µM | > 50 µM | > 50 µM | 31 µM | >230 μM |  |  |
| OC[C@H]1O[C@@H](n2cnc3c(NCc4ccccc4)nc(-n4cc(-c5ccccc5)nn4)nc32)[C@@H](O)C1O (stereo partly drawn) [Compound 35, 6-(N-Benzyl)-2-[4-(phenyl)-1,2,3-triazol-1H-yl]adenosine] |  |  |  |  |  |  |  |  | 200 μM |  | EC50 (CMV AD-169 strain; Human betaherpesvirus 5, AD169, HEL cell cultures, virus input 100 PFU): > 40 µM; EC50 (CMV Davis strain; Human betaherpesvirus 5, HEL cell cultures, virus input 100 PFU): > 40 µM; cytostatic activity (in words) [10]: poorly cytostatic; IC50 [10]: 90 to 120 µM; GI50 ([2]; 96 h): 5 µM; GI50 ([3]; Homo sapiens, HCT-116, 96 h): > 50 µM; GI50 ([4]; Homo sapiens, HCT-116, 96 h, read-out: GI50 HCT116): 43.6 µM; GI50 ([5]; PTX10, 96 h, read-out: GI50 PTX10): > 50 µM; GI50 ([6]; 96 h): 24.5 µM |
| Cc1ccc(-c2cn(-c3nc(O)c4ncn([C@@H]5O[C@H](CO)[C@@H](O)[C@H]5O)c4n3)nn2)cc1 [Compound 18, 2-[4-(4-Methylphenyl)-1,2,3-triazol-1H-yl]inosine] | 118 µM | 151 µM |  | 38 µM | > 50 µM | > 50 µM | > 50 µM | 13.4 µM | >240 μM |  | anti-CMV activity (in words) (cytomegalovirus (CMV)): marginal activity |
| COc1ccc(-c2cn(-c3nc(O)c4ncn([C@@H]5O[C@H](CO)[C@@H](O)[C@H]5O)c4n3)nn2)cc1 [Compound 19, 2-[4-(4-Methoxyphenyl)-1,2,3-triazol-1H-yl]inosine] |  |  | > 230 µM | 29.5 µM | > 50 µM | > 50 µM | > 50 µM | 8.56 µM | >230 μM |  |  |
| OC[C@H]1O[C@@H](n2cnc3c(O)nc(-n4cc(-c5ccccc5)nn4)nc32)C[C@@H]1O [Compound 25, 2-[4-(Phenyl)-1,2,3-triazol-1H-yl]-2′-deoxyinosine] |  |  | 188 µM | 31 µM | > 50 µM | > 50 µM | > 50 µM | 14.8 µM | >250 μM | 158 µM | anti-CMV activity (in words) (cytomegalovirus (CMV)): marginal activity |
| OCc1cn(-c2nc(O)c3ncn([C@@H]4O[C@H](CO)[C@@H](O)[C@H]4O)c3n2)nn1 [Compound 20, 2-[4-(Hydroxymethyl)-1,2,3-triazol-1H-yl]inosine] | > 270 µM | > 270 µM |  | 20.4 µM | 42.6 µM | > 50 µM | > 50 µM | 3.53 µM | >270 μM |  |  |
| COc1ccc(-c2cn(-c3nc(O)c4ncn([C@H]5C[C@H](O)[C@@H](CO)O5)c4n3)nn2)cc1 [Compound 26, 2-[4-(4-Methoxyphenyl)-1,2,3-triazol-1H-yl]-2′-deoxyinosine] |  |  |  | 37.2 µM | > 50 µM | > 50 µM | > 50 µM | 15.7 µM | >240 μM | > 240 µM | EC50 (CMV AD-169 strain; […]): > 240 µM |
